Data as given in patent publication US20050112573A1, “Method of detecting toxic substance” (priority 2001, published 2005).

System: yeast genes (level of expressed mRNA)
Experiment: DNA chip analysis of expressed mRNA of yeast genes after 2 h culture with a toxic chemical substance
Format: cell-based, Saccharomyces cerevisiae S288C
Protocol: Yeast (Saccharomyces cerevtisiae S288C (α SUC2mal mel gap2 CUP1)) were cultured at 25° C. on YPD medium (yeast extract 1%, polypepton 2%, glucose 2%). One of toxic chemical substances was added to the cell at logarithmic growth phase, and the cell was further cultured for two hours. Cell was cultured without any chemical substance in the same condition, and was used as control. Concentrations of the chemical substances were defined to inhibit the growth of the yeast but not lead to death.
After the completion of cultivation, the culture was centrifuged to collect the cells. To the cells, sodium acetate buffer (50 mM sodium acetate, 10 mM EDTA, 1% SDS) was added, and the mixture was shaken at 65° C. for five minutes, followed by returning to room temperature, and obtaining the supernatant, which procedure was repeated two times. To the supernatant, ½ amount of a solution of phenol/chloroform was added, and the mixture was centrifuged to give a supernatant, which was added with an equal amount of chloroform, and the mixture was centrifuged to give a supernatant. To the supernatant, an equal amount of isopropanol containing 0.3 M sodium acetate was added, and the mixture was allowed to stand at room temperature for 30 minutes, after which the mixture was centrifuged to give a sediment of the whole RNAs. Seventy % ethanol was added to the sediment, and the mixture was again centrifuged to give a sediment, which was then dried and dissolved in water. mRNA was isolated from the whole RNAs as followings. In view of the fact that a poly A chain is attached to the 3′ terminus of mRNA, a polynucleotide having a poly T structure which was immobilized on the surface of latex beads was used to trap the mRNA, and then the mRNA was washed and eluted with spine column (Oligotex-dT30<Super>mRNA Purification Kit, Takara). Reverse transcription of the mRNA was conducted with a reverse transcriptase (Super Script II Reverse Transcriptase; catalogue No. 18064-014, GibcoBRL) using fluorescence-labeled nucleotides to give cDNAs that were introduced with Cy3-dUTP or Cy5-dUTP during the reverse transcription.
The labeled cDNAs were dissolved in TE buffer (10 mM Tris-HCl/1 mM EDTA, pH8.0), and the solution was dropped on the DNA chip containing the whole genes of yeast (DNA Chip Research Inc. Japan) so that the cDNAs were hybridized on the DNA chip at 65° C. for over 12 hours. The fluoresces intensity of the DNA chip was read with a scanner, and the ratio relative to the fluorescence intensity resulting from the absence of chemical substance was estimated as the following, which is shown in Tables 1 to 9: [formula]
In the Tables, “Intensity” indicated in the rightmost column is a value of the level of expressed mRNA of each gene in control cells as divided by the average level of the expressions of the whole genes.

N#Cc1c(Cl)c(Cl)c(Cl)c(C#N)c1Cl [(9), 2,4,5,6-tetrachloro-1,3-benzenedicarbonitrile]
The level of expressed mRNA in the presence of chemical substance/The level of expressed mRNA in the absence of chemical substance (yeast gene YAR010C): 1.2 | The level of expressed mRNA in the presence of chemical substance/The level of expressed mRNA in the absence of chemical substance (yeast gene YBL005W-A): 0.8 | The level of expressed mRNA in the presence of chemical substance/The level of expressed mRNA in the absence of chemical substance (yeast gene YBL041W): 2.8 | The level of expressed mRNA in the presence of chemical substance/The level of expressed mRNA in the absence of chemical substance (yeast gene YBL043W): 0.5 | The level of expressed mRNA in the presence of chemical substance/The level of expressed mRNA in the absence of chemical substance (yeast gene YBL078C): 12.3 | The level of expressed mRNA in the presence of chemical substance/The level of expressed mRNA in the absence of chemical substance (yeast gene YBR214W): 2.2 | The level of expressed mRNA in the presence of chemical substance/The level of expressed mRNA in the absence of chemical substance (yeast gene YCL020W): 0.9 | The level of expressed mRNA in the presence of chemical substance/The level of expressed mRNA in the absence of chemical substance (yeast gene YCL027W): 0.7 | The level of expressed mRNA in the presence of chemical substance/The level of expressed mRNA in the absence of chemical substance (yeast gene YCR004C): 4.7 | The level of expressed mRNA in the presence of chemical substance/The level of expressed mRNA in the absence of chemical substance (yeast gene YCR071C): 0.6 | The level of expressed mRNA in the presence of chemical substance/The level of expressed mRNA in the absence of chemical substance (yeast gene YCR088W): 0.8 | The level of expressed mRNA in the presence of chemical substance/The level of expressed mRNA in the absence of chemical substance (yeast gene YDL008W): 2.3 | The level of expressed mRNA in the presence of chemical substance/The level of expressed mRNA in the absence of chemical substance (yeast gene YDL238C): 1.7 | The level of expressed mRNA in the presence of chemical substance/The level of expressed mRNA in the absence of chemical substance (yeast gene YDR055W): 0.8 | The level of expressed mRNA in the presence of chemical substance/The level of expressed mRNA in the absence of chemical substance (yeast gene YDR084C): 0.6 | The level of expressed mRNA in the presence of chemical substance/The level of expressed mRNA in the absence of chemical substance (yeast gene YDR085C): 0.4 | The level of expressed mRNA in the presence of chemical substance/The level of expressed mRNA in the absence of chemical substance (yeast gene YDR104C): 2.8 | The level of expressed mRNA in the presence of chemical substance/The level of expressed mRNA in the absence of chemical substance (yeast gene YDR115W): 1.1 | The level of expressed mRNA in the presence of chemical substance/The level of expressed mRNA in the absence of chemical substance (yeast gene YDR259C): 1.0 | The level of expressed mRNA in the presence of chemical substance/The level of expressed mRNA in the absence of chemical substance (yeast gene YDR315C): 1.1 | The level of expressed mRNA in the presence of chemical substance/The level of expressed mRNA in the absence of chemical substance (yeast gene YDR358W): 2.9 | The level of expressed mRNA in the presence of chemical substance/The level of expressed mRNA in the absence of chemical substance (yeast gene YDR388W): 1.4 | The level of expressed mRNA in the presence of chemical substance/The level of expressed mRNA in the absence of chemical substance (yeast gene YDR432W): 0.7 | The level of expressed mRNA in the presence of chemical substance/The level of expressed mRNA in the absence of chemical substance (yeast gene YDR481C): 1.9 | The level of expressed mRNA in the presence of chemical substance/The level of expressed mRNA in the absence of chemical substance (yeast gene YDR510W): 2.7 | The level of expressed mRNA in the presence of chemical substance/The level of expressed mRNA in the absence of chemical substance (yeast gene YEL042W): 0.2 | The level of expressed mRNA in the presence of chemical substance/The level of expressed mRNA in the absence of chemical substance (yeast gene YEL066W): 1.3 | The level of expressed mRNA in the presence of chemical substance/The level of expressed mRNA in the absence of chemical substance (yeast gene YER039C): 1.2 | The level of expressed mRNA in the presence of chemical substance/The level of expressed mRNA in the absence of chemical substance (yeast gene YER107C): 0.4 | The level of expressed mRNA in the presence of chemical substance/The level of expressed mRNA in the absence of chemical substance (yeast gene YER130C): 0.5 | The level of expressed mRNA in the presence of chemical substance/The level of expressed mRNA in the absence of chemical substance (yeast gene YFL028C): 2.7 | The level of expressed mRNA in the presence of chemical substance/The level of expressed mRNA in the absence of chemical substance (yeast gene YFL043C): 2.2 | The level of expressed mRNA in the presence of chemical substance/The level of expressed mRNA in the absence of chemical substance (yeast gene YGL229C): 1.8 | The level of expressed mRNA in the presence of chemical substance/The level of expressed mRNA in the absence of chemical substance (yeast gene YGR136W): 2.1 | The level of expressed mRNA in the presence of chemical substance/The level of expressed mRNA in the absence of chemical substance (yeast gene YGR189C): 0.3 | The level of expressed mRNA in the presence of chemical substance/The level of expressed mRNA in the absence of chemical substance (yeast gene YGR213C): 7.5 | The level of expressed mRNA in the presence of chemical substance/The level of expressed mRNA in the absence of chemical substance (yeast gene YGR257C): 1.5 | The level of expressed mRNA in the presence of chemical substance/The level of expressed mRNA in the absence of chemical substance (yeast gene YHR004C): 1.1 | The level of expressed mRNA in the presence of chemical substance/The level of expressed mRNA in the absence of chemical substance (yeast gene YHR071W): 1.0 | The level of expressed mRNA in the presence of chemical substance/The level of expressed mRNA in the absence of chemical substance (yeast gene YHR139C): 107.2 | The level of expressed mRNA in the presence of chemical substance/The level of expressed mRNA in the absence of chemical substance (yeast gene YHR142W): 0.4 | The level of expressed mRNA in the presence of chemical substance/The level of expressed mRNA in the absence of chemical substance (yeast gene YIL123W): 0.1 | The level of expressed mRNA in the presence of chemical substance/The level of expressed mRNA in the absence of chemical substance (yeast gene YIL140W): 0.7 | The level of expressed mRNA in the presence of chemical substance/The level of expressed mRNA in the absence of chemical substance (yeast gene YJL073W): 1.7 | The level of expressed mRNA in the presence of chemical substance/The level of expressed mRNA in the absence of chemical substance (yeast gene YJL089W): 1.6 | The level of expressed mRNA in the presence of chemical substance/The level of expressed mRNA in the absence of chemical substance (yeast gene YJL116C): 2.4 | The level of expressed mRNA in the presence of chemical substance/The level of expressed mRNA in the absence of chemical substance (yeast gene YJR004C): 0.3 | The level of expressed mRNA in the presence of chemical substance/The level of expressed mRNA in the absence of chemical substance (yeast gene YJR086W): 1.4 | The level of expressed mRNA in the presence of chemical substance/The level of expressed mRNA in the absence of chemical substance (yeast gene YKL008C): 0.3 | The level of expressed mRNA in the presence of chemical substance/The level of expressed mRNA in the absence of chemical substance (yeast gene YKL013C): 1.5
